Results: patent US12102672B2, “Immunogenic sequences from a phage tail length tape measure protein, bacteria expressing the same and their use in treating a cancer” (INSTITUT GUSTAVE ROUSSY, priority 2017, dated 2024)
Entries after “also recorded” stand apart in the source; their conditions may differ.

How the values were obtained:
[1] = tested on: MCA-205 sarcoma; assay: MCA-205 sarcoma growth in FMT-treated mice, CTX plus oral gavage with E. hirae strains; format: in vivo; conditions: for Anti-tumor effect: summary of the characteristics of the strains, with CTX, MCA205 sarcoma; for CTX-mediated antitumor effects (MCA-205 tumor growth): FMT from BC patient 2 with no overt dysbiosis, oral gavage; for boost of CTX tumoricidal activity (MCA-205 tumor growth): dysbiotic FMT from BC patient, 3 cycles CTX 100 mg/kg, oral gavage 1.10^9 bacteria
Description: FIG. 1. Experimental setting. (A) Mice are treated with broad spectrum antibiotics (streptomycin, colistin, ampicillin and vancomycine) for 3 days before performing Fecal Microbiota Transplantation (FMT). 14 days post-FMT, MCA-205 sarcoma cell lines are inoculated in the right flank of mice (8.10^5 cells per mice). […] (B) Non FMT-treated SPF mice are used as control.
FIG. 2. Dysbiosis by FMT BC patient 1: Effectiveness of E. hirae 13144 to restore CTX-mediated antitumor effects. […] (C) Tumor growth curves of MCA-205 sarcoma in FMT-treated mice after oral gavage with strain E. hirae 13144 or NaCl as control. 2 independent experiments are depicted. (D) Overall survival of FMT-treated, MCA-205 sarcoma bearing mice treated with CTX or NaCl after oral gavage with strain E. hirae 13144. A typical survival curve is depicted for six mice per group. (E) Concatenated data of tumor sizes at day 21 post-CTX from 2 independent experiments are shown.
FIG. 3. […] (C) Tumor growth curves of MCA-205 sarcoma in FMT-treated mice after oral gavage with strain E. hirae 13144 or NaCl as control. 2 independent experiments are depicted. (D) Concatenated data of tumor sizes at day 21 post-CTX from 2 independent experiments are shown.
FIG. 4. […] Tumor growth curves of MCA-205 sarcoma in FMT-treated mice after oral gavage with strain E. hirae 13144 (A), IGR1 (B) or NaCl as control. A typical curve is depicted for six mice per group. (C) Concatenated data of tumor sizes at day 17 post-CTX from 1-2 independent experiments are shown. (D). Comparaison of various strains of E. hirae for their capacity to control tumor growth. […] EH10815 fails to work and that may be related to a mutation residing in TMP2 (see below FIG. 13B).
FIG. 5. […] (A) Tumor surface of MCA-205 sarcoma in FMT-treated mice after oral gavage with strain E. hirae 13144, IGR4, IGR7, Actinomycetes spp (Ao) and injected with 3 cycles of CTX (C) vs NaCl (N). Each dot is one mouse/tumor. (B) Tumor growth curves of MCA-205 sarcoma in SPF mice of the best group, means+SEM of tumor sizes at each time point and tumor sizes at sacrifice (C: CTX). Each dot is one mouse/tumor. Anova statistics indicating significant differences between CTX and the triple combination. (C) Tumor surface of MCA-205 sarcoma in FMT-treated mice after oral gavage with strains EH13144, IGR1, IGR11, Barnesiella or Akkermansia and injected with 3 cycles of CTX. Bacterial strains are used alive (V) or pasteurized (P). For pasteurization, bacteria are incubated 30 min at 70° C. and frozen at −80° C. at least 6 hours.
FIG. 6. […] Tumor growth curves of MCA-205 sarcoma in FMT-treated mice after oral gavage with strain E. hirae 13144 alive (A), pasteurized (B) or NaCl as control. A typical curve is depicted for six mice per group. (C) Concatenated data of tumor sizes at day 17 post-CTX from 3 independent experiments are shown.

[2] = tested on: colon mucosae; assay: Colon inflammatory infiltrates (HES staining) after E. hirae gavage and CTX; format: in vivo, mice; conditions: for inflammatory infiltrates of colon mucosae: mice without tumor, oral gavages + CTX, versus without commensals
Description: FIG. 11. Effects of EH on gut inflammation and role of CD8+ T cells in this inflammation: EH-specific CTL amplified in the mLN may return into the lamina propria. (A) Experimental setting. […] Then, we performed oral gavage with E. hirae (708 or 13144) and anti-CD8 injection (200 μg per mice) every three days for a total of 4 gavages/injections. 5 days after the first oral gavage, mice are treated with CTX. One week post-CTX, colon is removed for Hematoxylin Eosin Staining (HES). (B) Extent of inflammatory infiltrates in colon of mice colonized with E. hirae and treated with anti-CD8 ablating Abs and CTX.
FIG. 18. […] (A) Experimental setting. […] Then we performed oral gavage with E. hirae (708 or 13144) every three days for a total of 4 gavages. 5 days after the first oral gavage, mice were treated with CTX. One week post-CTX, colons are removed to be embedded in PPFE for Hematoxylin, Eosin and Safran staining (HES). (B) Extent of inflammatory infiltrates in colons of mice bearing MCA205 tumors or not and colonized with E. hirae and treated with CTX. Student t′-test statistical analyses: ** p<0.01.

[3] = tested on: MCA-205 sarcoma; assay: MCA205 sarcoma growth in antibiotic-treated SPF C57BL/6 mice, CTX plus oral gavage with bacteria; format: in vivo; conditions: ATB 3 days, CTX 100 mg/kg x3, weekly oral gavages, FIG. 27B
Description: A and C. Experimental setting. […] D-E. Ex vivo recall assays. […] Each dot represents one mouse.
A-B. Prophylactic vaccinations. […] C-D. Therapeutic settings.
Mice were treated during 3 days with an antibiotic solution (ATB) containing ampicillin (1 mg/ml), streptomycin (5 mg/ml), colistin (1 mg/ml) (Sigma-Aldrich) and vancomycin (0.25 mg/ml) added in the sterile drinking water of mice. Antibiotic activity was confirmed by cultivating fecal pellets resuspended in BHI+15% glycerol at 0.1 g/ml on COS (BD Columbia Agar with 5% Sheep Blood) plates for 48 h at 37° C. in aerobic and anaerobic conditions. In the context of bacterial transplantation experiments, mice received 3 days of ATB before undergoing bacterial transplantation the next day by oral gavage using animal feeding needles.
Syngeneic C57BL/6 mice were implanted with 0.8×10^6 MCA-205 WT sarcoma cells subcutaneously and treated intraperitoneally (i.p.) when tumors reached 20 to 35 mm^2 in size with CTX (100 mg/kg). Depending on the experimental setting, mice were injected once or 3 times at 1-week interval. Tumor size was routinely monitored every 3 days by means of a caliper.
Enterococcus hirae 13144 were originally isolated from spleens of SPF mice treated with CTX in our laboratory.

[4] = tested on: MCA205 sarcoma; conditions: cited from earlier work; for anti-tumor immune response: FIG. 1D of Daillère et al., 2016

Enterococcus hirae 708 [Peptide 708, reference compound]
Anti-tumor effect [1]: No | inflammatory infiltrates of colon mucosae [2]: more infiltrated | restoration of antibiotic-perturbed anticancer effects of CTX (MCA205 growth) [3]: reduced anticancer effect | anti-tumor immune response [4]: fails to do so

Enterococcus hirae strain 13144 [Peptide 13144]
CTX-mediated antitumor effects (MCA-205 tumor growth) ([1]; listed as E. hirae 13144): ameliorates the CTX-mediated antitumor effects | CTX-mediated antitumor effects (MCA-205 tumor growth) ([1]; listed as EH13144): significant | boost of CTX tumoricidal activity (MCA-205 tumor growth) ([1]; listed as E. hirae 13144): only when used alive | boost of CTX tumoricidal activity (MCA-205 tumor growth) ([1]; listed as EH13144): very effective at restoring the efficacy | Anti-tumor effect [1]: Yes | colon inflammatory lesions in tumor bearers ([2]; mice bearing MCA205 sarcoma versus naive, listed as E. hirae 13144): markedly reduced; also recorded: prevents the gut inflammatory lesions | inflammatory infiltrates of colon mucosae [2]: more infiltrated | restoration of antibiotic-perturbed anticancer effects of CTX (MCA205 growth) [3]: efficient | restoration of CTX-mediated antitumor effects ([4]; 14 day-ATBs, oral gavage): selectively restored the CTX-mediated antitumor effects | anti-tumor immune response [4]: induces an efficient anti-tumor immune response
